Results taken from EP3423441B1, “IODINATED ANALOGS OF CHOLINE, METHODS OF PREPARATION THEREOF, AND USE THEREOF AS MEDICAMENTS” (Univerzita Palackého v Olomouci, priority 2016, dated 2017).

Key:
choline transporters = assay: In vitro determination of IC50: inhibition of [^3H]choline chloride accumulation in PC-3 cells; assay type: cell-based; settings: cell line PC-3 (human prostate carcinoma), [^3H]choline chloride 0.81 × 10^-6 M, 60 min at 37 °C
Description: IC50 value corresponds to a concentration of the given analog of choline which reduces the accumulation of choline chloride, the natural ligand of choline transporterss, to 50 % of the maximum value. For the assay, the tritium labeled choline chloride, i.e. [^3H]choline chloride, was used. The assay was performed in vitro on the cell line PC-3 derived from a human prostate carcinoma, which is known to overexpress choline transporters. […] As the negative control, a cell line of human ovarian carcinoma SKOV3 prepared to the confluence of 90 % in 24-well plates was used.
The cultivation medium was removed from the thus prepared cells in cultivation plates and the cells were rinsed with phosphate buffered saline (PBS). Subsequently, 0.3 mL of "incubation buffer" (25 mM Tris/HCl, 5.4 mM KCl, 1.8 mM CaCl2, 0.8 mM MgSO4, 5 mM glucose, 140 mM NaCl, pH adjusted to 7.4) was added to the cells. Then 0.1 mL of the solution of the tested substance (analog of choline) in the incubation buffer was added to the PC-3 cells in such concentrations, that after adding [^3H]choline chloride the resulting concentrations of the tested analog would be following: 0 M, 10^-8 M, 10^-7 M, 10^-6 M, 5 × 10^-6 M, 10^-5 M, 10^-4 M, 5 × 10^-4 M, 10^-3 M, 5×10^-3 M. Each concentration was tested in triplicate.
Subsequently, all cells prepared in this manner (PC-3 and SKOV3) were incubated with the analogs of choline for 15 minutes at the temperature of 37 °C.
Then 0.1 mL of the solution of the [^3H]choline chloride in the incubation buffer was added to all cell-containing wells, so that 0.1 mL of the solution had the activity of 15 kBq and that the final concentration of the [^3H]choline chloride in the medium with the cells was 0.81 × 10^-6 M. The cells were then incubated at 37 °C for a period of 60 min. After the incubation, all buffer solution was removed from the cells. The cells were rinsed with PBS, which was subsequently removed, and 0.2 mL of aqueous NaOH solution (0.1 M) was added to each well. The cells were incubated with sodium hydroxide for 30 min at 37 °C. The lysate was then homogenized with a pipette and 10 µL of the lysate were used for the determination of protein concentration by bicinchonic acid assay (BCA).
The remaining lysate (180 µL) was quantitatively transferred into scintillation vials containing a previously prepared scintillation solution (2 mL of the solution in each vial). Each well was then additionally rinsed with 0.2 mL of pure water and this solution was added to the corresponding scintillation vials. Scintillation vials were closed and their content was stirred on a shaker.
To another three scintillation vials containing scintillation solution (2 mL of the solution in each vial) the standard samples of [^3H]choline chloride were added (i.e. 10 µl of the [^3H]choline chloride solution together with 180 µl of aqueous NaOH solution (0.1 M) and 200 µl of water). The vials were closed and their content was stirred on the shaker.
Subsequently, radioactivity of each scintillation vial was measured using a liquid scintillation counter (Tri-Carb 2910TR Liquid Scintillation Counter, PerkinElmer). The recorded counts per second (cps) were then used to calculate the accumulation of [^3H]choline chloride in the individual cell samples. […] These values were used to construct a sigmoid curve of dependence between the rate of [^3H]choline chloride accumulation and the competing ligand (analog of choline) concentration(inhibition curve, Figure 2). The IC50 values were calculated from these inhibition curves.

in vitro = settings: liver microsomes
[1] = Binding to plasmatic proteins; settings: plasma
Microsomal stability = settings: hepatic microsomes

## C[N+](C)(C)CCO [Choline]
Choline transporters
  IC50: 3.7 µM

## COc1ccc(CC[N+](C)(C)CCO)cc1I.Cc1ccc(S(=O)(=O)[O-])cc1 [Example 1, (2-hydroxyethyl)-[2-(3-iodo-4-methoxyphenyl)ethyl]-dimethylammonium 4-methylbenzenesulfonate]
Stability in the plasma
  Plasma stability (120 min): 28.4%
In vitro
  microsomal CLint: 8.4 µL/min/mg
[1]
  fraction unbound: 0.805
Microsomal stability
  Microsomal stability t1l2: 165.0 min
Choline transporters
  IC50: 47 µM

## COc1ccc(CC[N+]23CCC(CC2)C(O)C3)cc1I.Cc1ccc(S(=O)(=O)[O-])cc1 (stereo not shown) [Example 2, 3-hydroxy-1-[2-(3-iodo-4-methoxyphenyl)ethyl]quinuclidin-1-ium 4-methylbenzenesulfonate]
Stability in the plasma
  Plasma stability (120 min): 59.0%
In vitro
  microsomal CLint: 14.2 µL/min/mg
[1]
  fraction unbound: 0.748
Microsomal stability
  Microsomal stability t1l2: 97.6 min
Choline transporters
  IC50: 92 µM

## COc1c(I)cc(CC[N+](C)(C)CCO)cc1I.Cc1ccc(S(=O)(=O)[O-])cc1 [Example 3, (2-hydroxyethyl)-[2-(3,5-diiodo-4-methoxyphenyl)ethyl]-dimethylammonium 4-methylbenzenesulfonate]
Stability in the plasma
  Plasma stability (120 min): 76.4%
In vitro
  microsomal CLint: 1040 µL/min/mg
[1]
  fraction unbound: 0.512
Microsomal stability
  Microsomal stability t1l2: 1.3 min
Choline transporters
  IC50: 25 µM

## COc1ccc(CCC[N+](C)(C)CCO)cc1I.Cc1ccc(S(=O)(=O)[O-])cc1 [Example 4, (2-hydroxyethyl)-[3-(3-iodo-4-methoxyphenyl)propyl]-dimethylammonium 4-methylbenzenesulfonate]
Stability in the plasma
  Plasma stability (120 min): 63.9%
In vitro
  microsomal CLint: 1120 µL/min/mg
[1]
  fraction unbound: 0.715
Microsomal stability
  Microsomal stability t1l2: 1.2 min
Choline transporters
  IC50: 19 µM

## C[N+](C)(CCO)CCc1ccc(I)cc1.Cc1ccc(S(=O)(=O)[O-])cc1 [Example 5, (2-hydroxyethyl)-[2-(4-iodophenyl)ethyl]-dimethylammonium 4-methylbenzenesulfonate]
Stability in the plasma
  Plasma stability (120 min): 43.0%
In vitro
  microsomal CLint: 88.6 µL/min/mg
[1]
  fraction unbound: 0.653
Microsomal stability
  Microsomal stability t1l2: 15.6 min
Choline transporters
  IC50: 7.4 µM

## C[N+]1(CCc2ccc(I)cc2)CCCC(O)C1.Cc1ccc(S(=O)(=O)[O-])cc1 (stereo not shown) [Example 6, 3-hydroxy-1-[2-(4-iodophenyl)ethyl]-1-methylpiperidin-1-ium 4-methylbenzenesulfonate]
Stability in the plasma
  Plasma stability (120 min): 81.3%
In vitro
  microsomal CLint: 1230 µL/min/mg
[1]
  fraction unbound: 0.735
Microsomal stability
  Microsomal stability t1l2: 1.1 min
Choline transporters
  IC50: 83 µM

## C[N+](C)(CCO)Cc1cccc(I)c1 [Example 9, (2-hydroxyethyl)-(3-iodobenzyl)-dimethylammonium methanesulfonate]
Choline transporters
  IC50: 99 µM

## OCC[N+]1(Cc2cccc(I)c2)CCCC1 [Example 10, 1-(2-hydroxyethyl)-1-(3-iodobenzyl)pyrrolidin-1-ium methanesulfonate]
Choline transporters
  IC50: 13 µM

## C[N+](C)(CCO)Cc1ccc(I)cc1 [Example 11, (2-hydroxyethyl)-(4-iodobenzyl)-dimethylammonium bromide]
Choline transporters
  IC50: 150 µM

## CC[N+](CC)(CCO)Cc1ccc(I)cc1 [Example 12, diethyl-(2-hydroxyethyl)-(4-iodobenzyl)ammonium bromide]
Choline transporters
  IC50: 80 µM

## OCC[N+]1(Cc2ccc(I)cc2)CCCC1 [Example 13, 1-(2-hydroxyethyl)-1-(4-iodobenzyl)pyrrolidin-1-ium bromide]
Choline transporters
  IC50: 29 µM

## OCC[N+]1(Cc2ccc(I)cc2)CCCC1 [Example 20, 1-(2-hydroxyethyl)-1-(4-iodobenzyl)pyrrolidin-1-ium 4-methylbenzenesulfonate]
In vitro
  microsomal CLint: 310 µL/min/mg
Choline transporters; 4-methylbenzenesulfonate
  IC50: 6.3 µM

## CCCCCCOc1ccc(CCC[N+](C)(C)CCO)cc1I [Example 21, [3-(4-hexyloxy-3-iodophenyl)propyl]-(2-hydroxyethyl)-dimethylammonium 4-methylbenzenesulfonate]
Choline transporters
  IC50: 0.43 µM

## CCCCCCCCCCOc1ccc(CCC[N+](C)(C)CCO)cc1I [Example 22, [3-(4-decyloxy-3-iodophenyl)propyl]-(2-hydroxyethyl)-dimethylammonium methanesulfonate]
Choline transporters
  IC50: 1.9 µM

## OCC[N+]1(CCOc2ccccc2I)CCCC1 [Example 24, 1-(2-hydroxyethyl)-1-[2-(2-iodophenoxy)ethyl]pyrrolidin-1-ium bromide]
Choline transporters
  IC50: 4.7 µM

## C[N+](C)(CCO)CCOc1ccc(I)cc1 [Example 25, (2-hydroxyethyl)-[2-(4-iodophenoxy)ethyl]-dimethylammonium bromide]
Choline transporters
  IC50: 23 µM

## OCC[N+]1(CCOc2ccc(I)cc2)CCCC1 [Example 26, 1-(2-hydroxyethyl)-1-[2-(4-iodophenoxy)ethyl]pyrrolidin-1-ium bromide]
Choline transporters
  IC50: 18 µM

## C[N+](C)(CCO)CCOc1cccc(I)c1 [Example 27, (2-hydroxyethyl)-[2-(3-iodophenoxy)ethyl]-dimethylammonium bromide]
Choline transporters
  IC50: 22 µM

## OCC[N+]1(CCOc2cccc(I)c2)CCCC1 [Example 28, 1-(2-hydroxyethyl)-1-[2-(3-iodophenoxy)ethyl]pyrrolidin-1-ium bromide]
Choline transporters
  IC50: 15 µM

## C[N+](C)(CCO)CCCCCCOc1cccc(I)c1 [Example 29, (2-hydroxyethyl)-[6-(3-iodophenoxy)hexyl]-dimethylammonium bromide]
Choline transporters
  IC50: 0.044 µM

## OCC[N+]1(CCCCCCOc2cccc(I)c2)CCCC1 [Example 30, 1-(2-hydroxyethyl)-1-[6-(3-iodophenoxy)hexyl]pyrrolidin-1-ium bromide]
Choline transporters
  IC50: 0.91 µM

## C[N+](C)(CCO)CCCCOc1ccccc1I [Example 31, (2-hydroxyethyl)-[4-(2-iodophenoxy)butyl]-dimethylammonium bromide]
Choline transporters
  IC50: 11 µM

## OCC[N+]1(CCCCOc2ccccc2I)CCCC1 [Example 32, 1-(2-hydroxyethyl)-1-[4-(2-iodophenoxy)butyl]pyrrolidin-1-ium bromide]
Choline transporters
  IC50: 5.1 µM

## C[N+](C)(CCO)CCc1ccc(I)s1 [Example 33, (2-hydroxyethyl)-[2-(5-iodothiophen-2-yl)ethyl]-dimethylammonium 4-methylbenzenesulfonate]
Choline transporters
  IC50: 0.45 µM

## OCC[N+]1(CCc2ccc(I)s2)CCCC1 [Example 34, 1-(2-hydroxyethyl)-1-[2-(5-iodothiophen-2-yl)ethyl]pyrrolidin-1-ium 4-methylbenzenesulfonate]
Choline transporters
  IC50: 10 µM

## OCC[N+]1(Cc2ccc(I)cc2)CCOCC1 [Example 35, 4-(2-hydroxyethyl)-4-(4-iodobenzyl)morpholin-4-ium bromide]
Choline transporters
  IC50: 270 µM

## OCC[N+]1(Cc2ccccc2I)CCOCC1 [Example 36, 4-(2-hydroxyethyl)-4-(2-iodobenzyl)morpholin-4-ium chloride]
Choline transporters
  IC50: 43 µM

## C[N+](C)(CCO)CCCCCCOc1cccnc1I [Example 37, (2-hydroxyethyl)-{6-[(2-iodopyridin-3-yl)oxy]hexyl}-dimethylammonium bromide]
Choline transporters
  IC50: 1.4 µM

## C[N+](C)(CCO)CCCCOc1ccc(-c2ccccc2)cc1I [Example 39, (2-hydroxyethyl)-{4-[(3-iodo-[1,1'-biphenyl]-4-yl)oxy]butyl}-dimethylammonium bromide]
Choline transporters
  IC50: 1.3 µM

## C[N+](C)(CCO)CCCCCCOc1ccc(I)c([N+](=O)[O-])c1 [Example 40, (2-hydroxyethyl)-[6-(4-iodo-3-nitrophenoxy)hexyl]-dimethylammonium bromide]
Choline transporters
  IC50: 0.14 µM

## C[N+](C)(CF)CCO [Fluoromethylcholine, reference compound]
Choline transporters
  IC50: 16 µM

## (2-hydroxyethyl)-{4-[(2-iodo-6-methylpyridin-3-yl)oxy]butyt}-dimethylammonium bromide [Example 38]
Choline transporters
  IC50: 18 µM
